Experimental data from patent US7247621B2, “Antiviral phosphonate compounds and methods therefor” (Valeant Research & Development, priority 2002, dated 2007).

What was measured:
[1] = molecular target: HCV RNA dependent RNA polymerase (RdRp), NS5B (Hepatitis C virus genotype 1b, UniProt P26663); experiment: Incorporation of phosphonate ATP analogs into RNA product by HCV RdRp (gel, extension of [33P]GpC); type: biochemical; details: for extension of [33P]GpC by HCV RdRp (incorporation into RNA product): 1 mM nucleotide, 10 μM [33P]GpC, 10 μM 5′-AAAAAAAUGC-3′ template, 2.5 μM HCV RdRp, FIG. 8
Method: Among other nucleotide analogs (data not shown), two exemplary phosphonate analogs of ATP, 5′-deoxy-5′-phosphonate (5′d-ATP) and 5′-deoxy-5′-methylene phosphonate (5′d-CH2-ATP), were tested for inhibition and/or incorporation into an RNA product by the HCV RNA dependent RNA polymerase (RdRp). The incorporation reactions included 1 mM of the phosphonate analog or ATP, 10 μM of [^33P]GpC, 10 μM of 5′-AAAAAAAUGC-3′, and 2.5 μM of HCV RdRp in a buffer that contained 50 mM Hepes, pH 7.3, 10 mM DTT, and 5 mM MgCl2. The RNA products were resolved on a 25% polyacrylamide-7M urea-TBE gel. […] The incorporation of 5′d-CH2-ATP is less efficient than that of ATP by 10-fold. To look for further elongation after incorporation of ATP or 5′d-CH2-ATP, the same experiment was performed in the presence of additional UTP (1 mM).
Exemplary results of such tests are depicted in the autoradiograph of FIG. 8 showing RNA products from incorporations of ATP and phosphonate analogs of ATP by HCV RdRp. Each reaction contained 2.5 μM of RdRp, 10 μM of [^33P]GpC, 10 μM template, and the following nucleotides (1 mM): lane 1, none; lane 2, ATP; lane 3,5′-deoxy-5′-phosphonate ATP; lane 4,5′-deoxy-5′-methylene phosphonate ATP; lane 5, ATP and UTP; lane 6,5′-deoxy-5′-phosphonate ATP and UTP; lane 7,5′-deoxy-5′-methylene phosphonate ATP and UTP. The reaction products were resolved on a 25% polyacrylamide-7 M urea-TBE gel and the gel was scanned on a PhosporImager.

[2] = molecular target: E. coli RNA polymerase (Escherichia coli, UniProt P0A8T7+P0A8V2); details: Savochkina et al. Mol. Biol. (Mosk) 1989; cited from earlier work
Chain of E. coli RNA polymerase (P0A8T7 whole entry): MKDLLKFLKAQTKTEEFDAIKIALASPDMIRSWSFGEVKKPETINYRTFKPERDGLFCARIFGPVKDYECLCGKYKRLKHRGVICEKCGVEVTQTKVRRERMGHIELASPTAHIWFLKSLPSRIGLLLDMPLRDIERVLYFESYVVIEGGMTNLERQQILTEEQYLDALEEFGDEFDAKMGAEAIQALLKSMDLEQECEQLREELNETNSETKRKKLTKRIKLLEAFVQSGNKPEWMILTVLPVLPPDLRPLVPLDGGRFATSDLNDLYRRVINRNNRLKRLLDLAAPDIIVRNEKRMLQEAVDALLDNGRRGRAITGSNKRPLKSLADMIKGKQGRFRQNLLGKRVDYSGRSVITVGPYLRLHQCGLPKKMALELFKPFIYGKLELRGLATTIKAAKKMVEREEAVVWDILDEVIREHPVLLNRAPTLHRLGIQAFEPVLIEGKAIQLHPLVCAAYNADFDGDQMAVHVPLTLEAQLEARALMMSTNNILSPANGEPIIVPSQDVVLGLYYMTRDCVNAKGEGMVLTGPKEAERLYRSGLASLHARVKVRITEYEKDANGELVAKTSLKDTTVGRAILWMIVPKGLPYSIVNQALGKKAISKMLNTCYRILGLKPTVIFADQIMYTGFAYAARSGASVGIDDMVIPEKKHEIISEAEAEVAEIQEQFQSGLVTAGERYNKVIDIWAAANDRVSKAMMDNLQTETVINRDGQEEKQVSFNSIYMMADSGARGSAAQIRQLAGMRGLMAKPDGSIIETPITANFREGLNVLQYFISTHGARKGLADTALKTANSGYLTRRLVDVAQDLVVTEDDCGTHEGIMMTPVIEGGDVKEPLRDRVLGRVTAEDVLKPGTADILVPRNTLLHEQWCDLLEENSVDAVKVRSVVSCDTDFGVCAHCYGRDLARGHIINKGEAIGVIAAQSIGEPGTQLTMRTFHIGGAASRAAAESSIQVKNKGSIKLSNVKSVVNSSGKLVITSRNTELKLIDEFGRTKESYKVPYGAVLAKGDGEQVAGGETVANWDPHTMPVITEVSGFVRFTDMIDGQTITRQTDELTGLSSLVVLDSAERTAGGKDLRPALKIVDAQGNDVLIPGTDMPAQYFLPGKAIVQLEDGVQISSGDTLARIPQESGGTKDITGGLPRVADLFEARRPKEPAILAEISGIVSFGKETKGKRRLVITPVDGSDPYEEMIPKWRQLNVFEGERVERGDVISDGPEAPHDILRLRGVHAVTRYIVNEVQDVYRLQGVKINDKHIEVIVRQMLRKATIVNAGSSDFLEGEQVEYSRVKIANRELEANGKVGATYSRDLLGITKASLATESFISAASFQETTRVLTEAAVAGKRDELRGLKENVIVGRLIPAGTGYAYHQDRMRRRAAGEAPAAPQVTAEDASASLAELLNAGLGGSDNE
Chain of E. coli RNA polymerase (P0A8V2 whole entry): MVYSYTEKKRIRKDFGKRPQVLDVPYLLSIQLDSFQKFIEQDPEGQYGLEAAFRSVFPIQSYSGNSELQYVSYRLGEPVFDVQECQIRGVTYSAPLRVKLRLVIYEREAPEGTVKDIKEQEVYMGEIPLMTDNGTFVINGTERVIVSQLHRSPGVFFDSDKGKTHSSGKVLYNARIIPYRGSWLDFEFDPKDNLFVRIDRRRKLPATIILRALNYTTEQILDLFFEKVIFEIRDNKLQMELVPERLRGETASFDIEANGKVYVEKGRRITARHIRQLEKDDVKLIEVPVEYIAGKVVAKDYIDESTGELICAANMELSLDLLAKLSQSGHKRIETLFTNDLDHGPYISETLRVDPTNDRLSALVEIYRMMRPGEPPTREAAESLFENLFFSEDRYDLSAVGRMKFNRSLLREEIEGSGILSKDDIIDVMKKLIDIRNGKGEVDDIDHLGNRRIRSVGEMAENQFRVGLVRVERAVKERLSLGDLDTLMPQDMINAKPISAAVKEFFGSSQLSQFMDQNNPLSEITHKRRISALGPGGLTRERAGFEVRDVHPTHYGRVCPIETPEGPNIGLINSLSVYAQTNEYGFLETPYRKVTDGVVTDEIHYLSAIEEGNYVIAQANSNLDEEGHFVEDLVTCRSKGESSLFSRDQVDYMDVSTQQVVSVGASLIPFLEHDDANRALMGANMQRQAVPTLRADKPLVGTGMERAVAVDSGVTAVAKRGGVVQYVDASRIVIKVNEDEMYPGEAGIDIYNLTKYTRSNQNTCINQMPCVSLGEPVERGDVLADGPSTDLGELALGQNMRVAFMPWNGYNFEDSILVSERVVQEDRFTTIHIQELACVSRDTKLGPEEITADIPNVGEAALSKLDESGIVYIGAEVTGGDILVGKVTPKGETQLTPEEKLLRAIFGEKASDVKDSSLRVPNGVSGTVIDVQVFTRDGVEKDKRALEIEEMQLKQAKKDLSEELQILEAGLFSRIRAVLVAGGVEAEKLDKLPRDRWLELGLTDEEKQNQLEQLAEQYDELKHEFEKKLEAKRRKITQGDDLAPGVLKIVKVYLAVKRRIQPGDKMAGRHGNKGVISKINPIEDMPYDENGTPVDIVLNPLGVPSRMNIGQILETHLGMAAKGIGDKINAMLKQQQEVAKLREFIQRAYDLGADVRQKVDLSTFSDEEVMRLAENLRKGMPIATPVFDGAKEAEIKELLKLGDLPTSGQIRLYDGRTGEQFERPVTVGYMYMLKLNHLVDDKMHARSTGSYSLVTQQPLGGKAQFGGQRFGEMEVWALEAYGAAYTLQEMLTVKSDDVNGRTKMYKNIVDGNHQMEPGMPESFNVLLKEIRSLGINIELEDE
Chain of E. coli RNA polymerase (P0A7Z4 whole entry, further chain): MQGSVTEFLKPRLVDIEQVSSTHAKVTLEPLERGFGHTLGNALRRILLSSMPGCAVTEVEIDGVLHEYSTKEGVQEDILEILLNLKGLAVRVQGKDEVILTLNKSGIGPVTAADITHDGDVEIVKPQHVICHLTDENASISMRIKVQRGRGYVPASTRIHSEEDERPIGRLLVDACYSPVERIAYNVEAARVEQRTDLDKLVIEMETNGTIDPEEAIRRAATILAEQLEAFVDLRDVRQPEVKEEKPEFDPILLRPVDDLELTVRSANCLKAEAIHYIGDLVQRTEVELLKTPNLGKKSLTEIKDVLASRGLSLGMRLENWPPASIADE
Chain of E. coli RNA polymerase (P0A800 whole entry, further chain): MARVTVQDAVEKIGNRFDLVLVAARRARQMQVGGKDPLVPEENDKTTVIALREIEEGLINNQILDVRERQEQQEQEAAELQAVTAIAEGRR

Chain of HCV RNA dependent RNA polymerase (RdRp), NS5B (P26663 2420-3010): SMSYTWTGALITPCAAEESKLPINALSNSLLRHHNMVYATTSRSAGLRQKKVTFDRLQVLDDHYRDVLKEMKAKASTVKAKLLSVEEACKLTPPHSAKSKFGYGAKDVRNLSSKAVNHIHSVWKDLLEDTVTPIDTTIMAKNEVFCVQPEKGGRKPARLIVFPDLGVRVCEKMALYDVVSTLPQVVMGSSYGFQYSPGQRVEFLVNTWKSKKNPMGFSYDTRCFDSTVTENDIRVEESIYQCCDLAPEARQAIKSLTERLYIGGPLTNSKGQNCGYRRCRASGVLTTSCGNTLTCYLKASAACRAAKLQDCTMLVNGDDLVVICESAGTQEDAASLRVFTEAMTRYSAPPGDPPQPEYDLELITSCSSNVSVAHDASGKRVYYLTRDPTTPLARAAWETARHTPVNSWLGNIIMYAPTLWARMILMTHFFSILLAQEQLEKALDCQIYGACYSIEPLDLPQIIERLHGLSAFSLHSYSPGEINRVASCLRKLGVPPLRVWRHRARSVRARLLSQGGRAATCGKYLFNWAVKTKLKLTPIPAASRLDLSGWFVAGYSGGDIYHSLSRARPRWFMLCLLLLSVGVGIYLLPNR

| Structure (SMILES) | extension of [33P]GpC by HCV RdRp (incorporation into RNA product) [1] | further elongation by UTP after incorporation ([1]; same experiment with additional UTP (1 mM)) | effect on RNA synthesis by E. coli RNA polymerase [2] |
| --- | --- | --- | --- |
| Nc1ncnc2c1ncn2[C@@H]1O[C@H](COP(=O)(O)OP(=O)(O)OP(=O)(O)O)[C@@H](O)[C@H]1O [ATP] | extension of [^33P]GpC by HCV RdRp was observed | Elongation products by UTP were seen | – |
| Nc1ncnc2c1ncn2[C@@H]1O[C@H](CP(=O)(O)OP(=O)(O)OP(=O)(O)O)[C@@H](O)[C@H]1O [5′d-ATP] | no extension | – | – |
| O=c1ccn([C@@H]2O[C@@H](CP(=O)(O)OP(=O)(O)OP(=O)(O)O)[C@@H](O)[C@H]2O)c(=O)[nH]1 [Phosphonate (5-deoxy) UTP] | – | – | pseudoterminator of RNA synthesis |
